Values quoted from earlier work as cited in PMC9516332 (Frontiers in Oncology, 2022).
Like-named read-outs stand apart in the source and are kept apart here.

Columns and labels:
Settings in all cases: cited from earlier work
[1] = target: T1, panel of 255 wild-type kinases (Homo sapiens, UniProt O15111)
T1 sequence (O15111 1-745): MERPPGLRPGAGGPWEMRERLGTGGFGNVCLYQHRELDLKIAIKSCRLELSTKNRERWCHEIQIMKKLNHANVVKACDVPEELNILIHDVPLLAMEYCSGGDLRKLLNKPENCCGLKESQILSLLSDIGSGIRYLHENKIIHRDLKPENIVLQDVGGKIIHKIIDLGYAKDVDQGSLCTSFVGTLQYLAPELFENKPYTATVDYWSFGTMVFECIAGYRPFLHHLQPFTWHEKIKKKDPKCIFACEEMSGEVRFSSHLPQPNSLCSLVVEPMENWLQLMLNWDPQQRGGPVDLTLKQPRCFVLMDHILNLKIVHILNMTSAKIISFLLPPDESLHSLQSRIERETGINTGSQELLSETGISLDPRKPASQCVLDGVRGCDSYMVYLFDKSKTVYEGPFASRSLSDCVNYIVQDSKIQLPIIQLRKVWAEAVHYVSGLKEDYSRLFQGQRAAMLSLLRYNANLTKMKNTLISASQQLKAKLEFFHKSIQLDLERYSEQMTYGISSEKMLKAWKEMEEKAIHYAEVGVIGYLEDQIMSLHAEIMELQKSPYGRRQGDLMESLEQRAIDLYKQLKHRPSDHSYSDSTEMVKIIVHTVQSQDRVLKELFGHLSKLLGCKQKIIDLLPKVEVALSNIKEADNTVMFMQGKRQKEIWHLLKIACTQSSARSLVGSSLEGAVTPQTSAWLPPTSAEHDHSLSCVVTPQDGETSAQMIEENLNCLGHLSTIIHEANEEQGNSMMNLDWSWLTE

[2] = target: panel of 255 wild-type kinases (Homo sapiens, UniProt P22612)
[3] = target: T2, panel of 255 wild-type kinases (Homo sapiens, UniProt P51813)
T2 sequence (P51813 1-675): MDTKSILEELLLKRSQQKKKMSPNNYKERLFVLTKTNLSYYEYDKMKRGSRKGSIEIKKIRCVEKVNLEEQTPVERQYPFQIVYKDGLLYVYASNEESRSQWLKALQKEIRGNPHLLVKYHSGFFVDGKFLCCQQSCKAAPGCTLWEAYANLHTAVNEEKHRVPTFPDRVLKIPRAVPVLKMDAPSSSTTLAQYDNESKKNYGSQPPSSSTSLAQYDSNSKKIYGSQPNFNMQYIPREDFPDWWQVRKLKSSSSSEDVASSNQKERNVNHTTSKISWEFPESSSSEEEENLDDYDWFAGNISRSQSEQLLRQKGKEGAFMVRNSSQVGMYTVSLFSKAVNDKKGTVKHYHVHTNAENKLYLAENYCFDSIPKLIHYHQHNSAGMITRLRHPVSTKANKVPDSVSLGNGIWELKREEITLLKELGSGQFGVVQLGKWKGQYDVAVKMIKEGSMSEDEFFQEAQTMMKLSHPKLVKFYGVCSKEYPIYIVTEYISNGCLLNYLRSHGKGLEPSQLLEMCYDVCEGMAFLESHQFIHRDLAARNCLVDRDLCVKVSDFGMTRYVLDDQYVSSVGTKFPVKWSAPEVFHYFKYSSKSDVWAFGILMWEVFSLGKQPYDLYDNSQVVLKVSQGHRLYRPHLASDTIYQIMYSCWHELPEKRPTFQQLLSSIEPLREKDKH

[4] = target: panel of 255 wild-type kinases (Homo sapiens, UniProt Q16288)
[5] = target: T3, panel of 255 wild-type kinases (Homo sapiens, UniProt Q9NWZ3)
T3 sequence (Q9NWZ3 1-460): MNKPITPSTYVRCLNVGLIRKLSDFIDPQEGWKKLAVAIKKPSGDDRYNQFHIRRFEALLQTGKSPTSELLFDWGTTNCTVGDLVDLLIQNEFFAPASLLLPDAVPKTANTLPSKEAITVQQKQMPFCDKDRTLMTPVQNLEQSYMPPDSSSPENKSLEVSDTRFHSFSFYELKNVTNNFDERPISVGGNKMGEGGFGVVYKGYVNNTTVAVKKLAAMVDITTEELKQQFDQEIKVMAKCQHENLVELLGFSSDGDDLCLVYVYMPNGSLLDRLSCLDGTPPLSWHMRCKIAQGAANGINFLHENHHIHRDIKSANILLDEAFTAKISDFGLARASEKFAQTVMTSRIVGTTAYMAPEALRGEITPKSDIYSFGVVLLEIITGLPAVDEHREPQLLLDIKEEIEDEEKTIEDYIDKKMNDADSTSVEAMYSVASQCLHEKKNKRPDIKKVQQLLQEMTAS

[6] = kinase IKKα, 1 µmol/L single concentration, ref DOI: 10.1158/1535-7163.MCT-18-0877
[7] = kinase PKACγ, 1 µmol/L single concentration, ref DOI: 10.1158/1535-7163.MCT-18-0877
[8] = BMX kinase assay, 1 µmol/L single concentration, ref DOI: 10.1158/1535-7163.MCT-18-0877
[9] = kinase TRKC, 1 µmol/L single concentration, ref DOI: 10.1158/1535-7163.MCT-18-0877
[10] = kinase IRAK4, 1 µmol/L single concentration, ref DOI: 10.1158/1535-7163.MCT-18-0877
[11] = kinase IKKα, 1 µmol/L single concentration, ref DOI: 10.1371/journal.pone.0092146
[12] = kinase PKACγ, 1 µmol/L single concentration, ref DOI: 10.1371/journal.pone.0092146
[13] = kinase IRAK4, 1 µmol/L single concentration, ref DOI: 10.1371/journal.pone.0092146
[14] = BMX kinase assay, 1 µmol/L single concentration, ref DOI: 10.1371/journal.pone.0092146
[15] = kinase TRKC, 1 µmol/L single concentration, ref DOI: 10.1371/journal.pone.0092146

Compound | %-inhibition at 1 µmol/L, IKKα [1, 6] | %-inhibition at 1 µmol/L, PKACγ [2, 7] | %-inhibition BMX [3, 8] | %-inhibition at 1 µmol/L, TRKC [4, 9] | %-inhibition at 1 µmol/L, IRAK4 [5, 10] | further results
O=C(c1ccc(F)c(F)c1Nc1ccc(I)cc1F)N1CC(O)([C@@H]2CCCCN2)C1 [cobimetinib] | 1.07% | 4.37% | 3.49% | -1.37% | -4.31% | 
CO[C@@H]1[C@H](N(C)C(=O)c2ccccc2)C[C@H]2O[C@]1(C)n1c3ccccc3c3c4c(c5c6ccccc6n2c5c31)C(=O)NC4 [midostaurin] | -0.107% | 81% | 81% |  | 27% | 
C=CC(=O)N1CCC[C@@H](n2nc(-c3ccc(Oc4ccccc4)cc3)c3c(N)ncnc32)C1 [ibrutinib] | 4.34% | 5% |  | 24% | -5% | 
C[C@@H](Oc1cc(-c2cnn(C3CCNCC3)c2)cnc1N)c1c(Cl)ccc(F)c1Cl [crizotinib] |  |  |  |  |  | %-inhibition at 1 µmol/L, IKKα [1, 11]: -1.78%; %-inhibition at 1 µmol/L, PKACγ [2, 12]: -6.52%; %-inhibition at 1 µmol/L, IRAK4 [5, 13]: 8%
Cc1cc(Nc2ncc(Cl)c(Nc3ccccc3S(=O)(=O)C(C)C)n2)c(OC(C)C)cc1C1CCNCC1 [ceritinib] | -0.91% | 1.46% | -0.557% | 9% | 1.3% | 
CC(C)(C)c1nc(-c2cccc(NS(=O)(=O)c3c(F)cccc3F)c2F)c(-c2ccnc(N)n2)s1 [dabrafenib] |  |  |  |  |  | %-inhibition BMX [3, 14]: 55%; %-inhibition at 1 µmol/L, TRKC [4, 15]: 81%
C=CC(=O)Nc1cc(Nc2nccc(-c3cn(C)c4ccccc34)n2)c(OC)cc1N(C)CCN(C)C [osimertinib] | 5% | 7.4% | 57% | -1.61% | -2.76% | 
CC#CC(=O)N1CCC[C@H]1c1nc(-c2ccc(C(=O)Nc3ccccn3)cc2)c2c(N)nccn12 [acalabrutinib] | -1.45% | 1.68% |  | 11% | -6.55% | 
COc1cc(N2CCC(N3CCN(C)CC3)CC2)ccc1Nc1ncc(Cl)c(Nc2ccccc2P(C)(C)=O)n1 [brigatinib] |  |  |  |  |  | %-inhibition at 1 µmol/L, IKKα [1]: -0.856%; %-inhibition at 1 µmol/L, PKACγ [2]: 9%; %-inhibition BMX [3]: 18%; %-inhibition at 1 µmol/L, TRKC [4]: 53%; %-inhibition at 1 µmol/L, IRAK4 [5]: 46%
CCCS(=O)(=O)Nc1ccc(F)c(C(=O)c2c[nH]c3ncc(-c4ccc(Cl)cc4)cc23)c1F [vemurafenib] |  |  |  |  |  | %-inhibition at 1 µmol/L, IKKα [1, 11]: -1.89%; %-inhibition at 1 µmol/L, PKACγ [2, 12]: -3%; %-inhibition BMX [3, 14]: 24%; %-inhibition at 1 µmol/L, TRKC [4, 15]: 5%; %-inhibition at 1 µmol/L, IRAK4 [5, 13]: -4.29%
CCc1cc2c(cc1N1CCC(N3CCOCC3)CC1)C(C)(C)c1[nH]c3cc(C#N)ccc3c1C2=O [alectinib] | -0.856% | 3% | 4% | 31% | 19% | 
CC(=O)Nc1cccc(-n2c(=O)n(C3CC3)c(=O)c3c(Nc4ccc(I)cc4F)n(C)c(=O)c(C)c32)c1 [trametinib] |  |  |  |  |  | %-inhibition at 1 µmol/L, IKKα [1, 11]: 2.63%; %-inhibition at 1 µmol/L, PKACγ [2, 12]: 2%; %-inhibition BMX [3, 14]: -3.22%; %-inhibition at 1 µmol/L, TRKC [4, 15]: -7.43%; %-inhibition at 1 µmol/L, IRAK4 [5, 13]: -5%
